One experiment relates to 4T1 breast cancer cells. Description: Tumor sphere formation of 4T1 cells in medium of neutrophils pre-treated with 4T1 CM. The format is cell-based. As to conditions: 4T1 cells in medium of neutrophils pre-treated with CM of 4T1; vs untreated control; FIG. 10F.
For a further experiment, the system named is colon cancer cells SW480. Description: NET-promoted tumor sphere formation, colon cancer. The format is cell-based. As to conditions: neutrophil medium, CM with or without brensocatib, FIG. 11K. How it is done: (§1) To test the therapeutic effects of brensocatib in different cancer types in vitro, the ability of brensocatib to inhibit NET-promoted tumor sphere formation is investigated. The neutrophils are cultured with conditioned medium from tumor cells of colon cancer, liver cancer, lung cancer, gastric cancer and pancreatic cancer with or without brensocatib treatment to activate NETosis, and then the neutrophil medium was used in tumor sphere formation of these cancer cells to analyze the effect of neutrophil medium to facilitate tumor cell growth. The amount of tumorsphere in each sample is then determined by imaging.

Experiment [1] relates to CTSC-overexpressing AT3 cancer cells. Kind of experiment: Brensocatib treatment of mice after orthotopic injection of CTSC-overexpressing AT3 cancer cells. It is filed as in vivo, C57/BL6 mice. The settings on record: brensocatib 5 mg/kg orally twice daily. How it is done:
Female BALB/c and athymic mice aged 6-10 weeks were used in all animal experiments. […] For EdU labeling assays, nude mice were intravenously injected with 2×10^5 cancer cells, followed by intraperitoneal (i.p.) injection of 100 ng/mouse EdU (ThermoFisher, C10640) 24 h before lung harvest. […] For Sivelestat or DNase I treatment, mice were i.p. injected with Sivelestat (50 mg/kg) or DNase I (5 mg/kg) 2 h before cancer cell injection, followed by daily injection of the reagents for 9 days, and then maintenance shots twice a week. For GSK484 treatment, mice were treated with GSK484 (20 mg/kg, i.p. daily shots for 20 days from day 7, and then maintenance shots every two days) following orthotopic injection of AT3 or 4T07 cells. For IL-1b blocking or IL6R/CCR1 inhibition assays, mice were orthotopically inoculated with 5×10^4 AT3 and treated with i.p. administration of IgG or the IL-1β blocking antibody (100 μg per mouse), or the IL6R blocking antibody (100 μg per mouse) and the CCR1 inhibitor BX471 (20 mg/kg), every two days from day 7 until the mice were sacrificed. For brensocatib treatment, BALB/c mice were orthotopically inoculated with 1×10^5 4T1 cells, and C57/BL6 mice were orthotopically inoculated with 2×10^5 AT3. Vehicle controls (0.5% HPMC, 0.1% Tween 80 in 0.1 M citrate buffer, pH 3) and brensocatib (5 mg/kg) were administered orally twice daily until the mice were sacrificed. Orthotopic tumors were surgically removed at the size of about 1 cm^3. […] For TSP-1 degradation assays, mice were i.p. injected with GSK484 (20 mg/kg) 2 h before cancer cell injection and followed by daily treatment. Then, the lungs were perfused with 50 ml of pre-chilled PBS through the right ventricle until they were cleared of blood at 72 h post injection of 3×10^6 AT3 or 4T07 cells. BLI was acquired with NightOWL II LB983 Imaging System (Bert-hold) and IVIS Spectrum CT (PerkinElmer). All animal studies were conducted according to the guidelines for the care and use of laboratory animals and were approved by the Institutional Animal Care and Use Committee of Shanghai Institute of Nutrition and Health.

Experiment [2] concerns hepatocellular carcinoma cells HUH7. Description: NET-promoted tumor sphere formation, liver cancer. The format is cell-based. As to conditions: neutrophil medium, CM with or without brensocatib, FIG. 11N. How it is done:
as §1

Experiment [3] deals with pancreatic cancer cells KP4. Kind of experiment: Mouse xenograft, pancreatic tumor cells by spleen injection (liver metastasis). The format is in vivo. The settings on record: nude mice, FIG. 12C. How it is done: A series of mouse xenograft studies are conducted by injecting liver and pancreatic tumor cells into nude mice by spleen injection. Then the mice are treated by brensocatib, and the growth of the tumors in liver is observed.

The test system of another experiment is neutrophils. Kind of experiment: Neutrophil recruitment by cancer cell conditioned medium (Transwell chambers). It is filed as cell-based, mice. The settings on record: CM of liver-metastatic breast cancer and bone-metastatic lung cancer cells, with or without brensocatib; FIGS. 11G, J. How it is done:
To isolate neutrophil from bone marrow, bone marrow cells from 8 to 12-weeks-old BALB/c mice were harvested in sterile Hank's buffered salt solution (HBSS) without Ca^2+/Mg^2+ (14185052, Invitrogen), and laid on top of a 2-layer Percoll (17089102, GE Healthcare) gradient (72% and 63.5% in HBSS), followed by centrifugation at 1,200 g for 30 min at 25° C. Neutrophils enriched in the interface of 63.5%-72% fractions were confirmed to be of >95% purity by flow cytometry analysis. To isolate neutrophils from peripheral blood of mice, whole blood was collected via cardiac puncture (1 ml per animal) and suspended in HBSS (2 ml per animal) with 15 mM EDTA. After centrifugation (400 g, 10 min, 4° C.), white cells were resuspended in 2 ml HBSS with 2 mM EDTA. Then, the cells were centrifuged (1500 g, 30 min, room temperature) in a three-layer Percoll gradient (78%, 69%, and 52%) without braking. […] The purity of the isolated neutrophils was determined by May-Grunwald-Giemsa staining (40751ES02, Yea-sen). […]
The procedure of two-chamber migration assays was previously described (Zhuang et al., “Differential effects on lung and bone metastasis of breast cancer by Wnt signalling inhibitor DKK1,” Nat. Cell Biol. 19:1274-1285 (2017)). […] The migrated cells in the lower chamber were counted after 3 h. […]

The next experiment addresses T1, CTSC (Homo sapiens, UniProt P53634).
T1 construct: The CTSC protein secretion level in tumor cells with different capabilities of metastasis to various target organs; endogenous in cells; host or cells: metastatic breast cancer cells (MDA-MB-231, SP16, SP16L; bone-metastatic lines) and bone-metastatic lung cancer cells
Description: CTSC protein expression in metastatic tumor cells. The format is cell-based. The settings on record: a number of metastatic tumor cell types treated with brensocatib; FIGS. 11A-C.

T1 sequence (P53634 25-463): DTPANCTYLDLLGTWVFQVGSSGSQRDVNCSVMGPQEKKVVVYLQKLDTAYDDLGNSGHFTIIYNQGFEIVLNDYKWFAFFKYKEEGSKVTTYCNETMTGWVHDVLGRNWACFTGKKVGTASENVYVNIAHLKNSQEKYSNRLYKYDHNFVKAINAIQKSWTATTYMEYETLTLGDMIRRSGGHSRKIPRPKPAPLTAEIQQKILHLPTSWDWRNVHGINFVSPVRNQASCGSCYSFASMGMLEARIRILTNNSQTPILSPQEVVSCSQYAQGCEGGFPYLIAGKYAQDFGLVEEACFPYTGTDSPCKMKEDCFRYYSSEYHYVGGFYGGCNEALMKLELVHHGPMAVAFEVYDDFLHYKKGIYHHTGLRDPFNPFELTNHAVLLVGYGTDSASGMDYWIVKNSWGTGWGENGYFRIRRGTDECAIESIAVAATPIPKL

Turning to `Cn1c(=O)oc2ccc(-c3ccc(C[C@@H](C#N)NC(=O)[C@@H]4CNCCCO4)cc3)cc21` [brensocatib, (2S)—N-{(1S)-1-cyano-2-[4-(3-methyl-2-oxo-2,3-dihydro-1,3-benzoxazol-5-yl)phenyl]ethyl}-1,4-oxazepane-2-carboxamide], the tumor sphere formation entry in the experiment on 4T1 breast cancer cells is on record as “suppressed”. For the same compound, the “NET-promoted tumor sphere formation (in vitro tumor growth)” value in the experiment on colon cancer cells SW480 is reported as “inhibit in vitro tumor growth”. For the same compound, the survival rate entry in experiment [1] (FIG. 10J) was “significant increase”. In experiment [1] (FIG. 10K), the “circulating levels of IL-1β” value is recorded as “decrease”. Also, in experiment [1] (FIGS. 10G-I), the “circulating NETs” value is on record as “Decreases”, the lung metastases entry is recorded as “Decreases”, the “lung metastatic nodule formation” value was “Decreases” and the neutrophil migration entry was “Decreases”. In experiment [2], the “NET-promoted tumor sphere formation (in vitro tumor growth)” value is “inhibit in vitro tumor growth”. Further, the “metastatic growth of pancreatic cancer cells KP4 in liver” value in experiment [3] is recorded as “significantly inhibits”. For the same compound, the neutrophil recruitment entry in the experiment with neutrophils was “significantly reduced”. Further, the CTSC protein expression entry at CTSC is listed as “significantly reduced”.

The values above are taken from patent US12697328B2, “Methods for treating metastasis with cathepsin C inhibitors” (Shanghai Institute of Nutrition and Health, Chinese Academy …, priority 2020, dated 2026).
